Where a SMILES comes first, the peptide text is derived from it. [ ]: non-standard residue; d: D form.
Columns and labels:
[1] = CD spectra and TEM of the single peptides (conformation, self-aggregation); format: physicochemical; details: 30 μM peptide in 20 mM sodium phosphate buffer with 150 mM KCl (pH 7), 25°C; for amyloid fibril formation (TEM): incubation for 168 h; for conformation by CD spectra: spectra largely unchanged with incubation time
Procedure: The circular dichroism (CD) spectra were recorded at various time points as indicated. […] The CD spectra of both peptides remained largely unchanged with the incubation time.
(§1) The 1.4 mM stock solution of each peptide in 75% trifluoroethanol was diluted to a final concentration of 30 μM in 20 mM sodium phosphate buffer with 150 mM KCl (PBS, pH 7). Each was incubated at 25°C for designated time points and placed in a 1‐mm cell to record the CD spectra between 200 and 250 nm on a J‐715 CD spectrometer (JASCO, Japan). The band width was set to 2 nm, and the step resolution was 0.05 nm. Each sample was scanned twice and the average of these two measurements was smoothed by the Savitzky–Golay method to get the final CD spectrum.
(§2) The samples were deposited on carbon‐coated 300‐mesh copper grids, incubated for 3 min for absorption, and then washed by water. Negative staining was carried out by staining with 2% uranyl acetate for 1.5 min. After air drying, the samples were viewed using a Hitachi H‐7000 electron microscope (Hitachi, Japan).
DR8-Aβ (25-35). The peptides were dissolved in 20 mM sodium phosphate b u ff e r with 150 mM KCl and incubated at 25 °C. Pept ide concentration is 30 µ M. (A-C) The CD spectra were recorded at the indicated incubation time shown in (A).(D -F) […]
formed nucleus ver y fast and β -sheet signal (negative ellipticity at 218 nm) can be seen in the beginning of i ncubation. The CD spectra were not smoothed.
(§3) (1 picture or pasted object on this page, not shown here)

Aβ40 = molecular target: T1, Aβ40 (Homo sapiens, UniProt P05067); assay: Inhibition of Aβ40 fibrillization (CD spectra, TEM); format: biochemical; details: for Aβ40 fibril formation in the presence of peptide at 1:1 ratio (kinetics of CD spectra): authors' reply in review file
T1 construct: made in house; host or cells: chemical solid-phase peptide synthesis (Fmoc-polyamide), no expression host
T1 sequence (P05067 672-711): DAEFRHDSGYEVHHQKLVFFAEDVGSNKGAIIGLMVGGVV
Procedure: as §1, §2
Appendix Figure S2. Effect of the designed bipartite peptides on inhibition of A β 40 fibrillization. The peptides were dissolved in 20 mM sodium phosphate buffer with 150 mM KCl and incubated at 25 °C. Peptide concentration is 30 µM for each peptide. The CD spect ra of A β 40 (A), the Aβ 40/R 8-Aβ (25-35) mixture (1:1) (B), and the Aβ 40/DR8-Aβ (25-35) mixture (1:1) (C) were recorded at the indicated incubation times shown in (A). The spectrum change is pointed out by an arrow in (A), indicating the formation of cross-β structure in the am yloid fibrils. (D) The time course of am yloido gen es is of Aβ 40 with and without the designed peptide inhibitors .
The CD spectra were not smoothed. (A) is the same as Fi g. S1A.
as §3

Neuro2a cells = assay: Cell viability by MTT assay, peptide alone; format: cell-based, mouse; details: 30 μM peptide, MTT 48 h later, N = 6
Procedure: (§4) Data information: Peptide concentration is 30 μM for each peptide. Standard deviations of the mean are shown as bars for each sample (N = 6 for pure peptide and N = 12 for mixture). The statistics were done by Student's t‐test. Mouse N2a neuroblastoma cells (ATCC) were cultured in Dulbecco's modified Eagle's medium (DMEM) (HyClone, USA) supplemented with 10% fetal bovine serum (HyClone, USA). Cells were harvested with DMEM and suspended at a density of 3.5 × 10^5 cells/ml. 100 μl from each sample was plated in one well of a 96‐well CellBIND microplate (Corning, USA) and then incubated at 37°C under 5% CO2 for 24 h. Five microliters from each stock peptide (6 mM) in DMSO was diluted with 95 μl of PBS (pH 7.0) and then 900 μl of DMEM to a final concentration of 30 μM.

[2] = test system: Aβ40 toxicity to Neuro2a cells; assay: Attenuation of Aβ40 cytotoxicity, MTT assay; format: cell-based, mouse; details: Aβ40 30 μM premixed with 30 μM peptide for 24 h at room temperature; Aβ40 alone 30%; MTT 48 h later, N = 12
Procedure: as §4

Compound	amyloid fibril formation (TEM) [1]	conformation by CD spectra [1]	Aβ40 fibril formation in the presence of peptide at 1:1 ratio (kinetics of CD spectra) (Aβ40)	inhibition effect on Aβ40 fibrillization at the lowest ratio (Aβ40; Aβ40 30 μM : peptide 1:0.1)	effect on formation of Aβ40 amyloid fibrils (CD 218 nm, TEM) (Aβ40; Aβ40 30 μM mixed with peptide at 1:0.1, 1:0.2 or 1:1 molar ratio, pH 7, 25°C)	toxicity to the N2a cells (Neuro2a cells)	cell viability with Aβ40 plus equal molar peptide [2]	inhibition effect on Aβ40 fibrillization, 1:1 mixture (Aβ40; Aβ40 30 μM and peptide 30 μM (1:1), pH 7, 25°C, CD)
Ac-RRRRRRRRGSNKGAIIGLM-NH2 [R8‐Aβ(25–35)]	did not form amyloid fibrils at all	random coil structure	failed to formed fibrils	observed even when its concentration was ten times lower than Aβ40	significantly delayed or decreased the formation of Aβ40 amyloid fibrils	no detectable toxicity	70–75%	–
CC[C@H](C)[C@H](NC(=O)[C@H](C)NC(=O)CNC(=O)[C@H](CCCCN)NC(=O)[C@H](CC(N)=O)NC(=O)[C@H](CO)NC(=O)CNC(=O)[C@@H](CCCNC(=N)N)NC(=O)[C@@H](CCCNC(=N)N)NC(=O)[C@@H](CCCNC(=N)N)NC(=O)[C@@H](CCCNC(=N)N)NC(=O)[C@@H](CCCNC(=N)N)NC(=O)[C@@H](CCCNC(=N)N)NC(=O)[C@@H](CCCNC(=N)N)NC(=O)[C@@H](CCCNC(=N)N)NC(C)=O)C(=O)N[C@H](C(=O)NCC(=O)N[C@@H](CC(C)C)C(=O)N[C@@H](CCSC)C(N)=O)[C@@H](C)CC [^DR8‐Aβ(25–35)] (Ac-[dR][dR][dR][dR][dR][dR][dR][dR]GSNKGAIIGLM-NH2)	did not form amyloid fibrils at all	random coil structure	failed to formed fibrils	–	–	no detectable toxicity	70–75%	inhibition effect was also observed

Reference: paper PMC5412883, “An intranasally delivered peptide drug ameliorates cognitive decline in Alzheimer transgenic mice” (EMBO Molecular Medicine, 2017)
